Usually EC50 stands for the concentration giving half of the maximal effect. In general, Ki refers to a measure of affinity in units of concentration, obtained from inhibition or displacement. A high value points to lower affinity. A word on the bioavailability: it is dose-corrected exposure relative to a reference, in per cent. Read a high bioavailability as much systemic uptake. The fraction unbound is free concentration divided by total concentration. A lower fraction unbound goes with extensive binding. By Papp A→B is commonly meant how fast a substance crosses the layer from the apical side. A low value points to slow passage. Usually Papp B→A stands for the apparent permeability from the basolateral to the apical side of a cell layer. As usually defined, the efflux ratio is a quotient of directional permeabilities that is used to spot active efflux.

The text below walks through data of patent US10258602B2 (Ocera Therapeutics, Inc., priority 2007, dated 2019).

Data set [1] relates to rat stomach fundus strips.
Description: (§1) Fundus strips (approximately 0.4×1 cm) were cut from the stomach of adult male Wistar rats parallel to the circular muscle fibers. They were placed between two platinum ring electrodes, 1 cm apart (Radnoti, ADInstruments, USA) in 10 ml tissue baths containing Krebs solution bubbled with 5% CO2 in O2 and maintained at 37° C. Tissues were suspended under 1.5 g resting tension. Changes of tension were measured isometrically with force transducers and recorded with a PowerLab 8/30 data acquisition system (ADInstruments, USA). Tissues were allowed to equilibrate for 60 min during which time bath solutions were changed every 15 min.
(§2) EFS was achieved by applying 0.5 ms pulses, 5 Hz frequency, at a maximally effective voltage of 70 V. EFS was applied for 30 sec at 3 min intervals for a 30 min initial period. This initial period was separated by a 5 min interval with wash out of the bath solution. Then, a second period of stimulation was started. […] Responses to the agents were measured and expressed as % of the mean of three or four pre-drug responses to EFS. All compounds were dissolved at 1 mM in distilled water or MeOH, as stock solutions.
Data set [2] has as its target human growth hormone secretagogue receptor (hGHS-R1a) (Homo sapiens, UniProt Q92847). Put plainly: Competitive radioligand binding assay (ghrelin receptor), standard method A.
The nature of data set [3]: Pharmacokinetic analysis (oral bioavailability, elimination half-life) in the rat. It is filed as in vivo. The text has this: D. Pharmacokinetic Analysis of Representative Compounds of the Invention
The pharmacokinetic behavior of compound of the invention can be ascertained by methods well known to those skilled in the art. (Wilkinson, G. R. “Pharmacokinetics: The Dynamics of Drug Absorption, Distribution, and Elimination” in Goodman & Gilman's The Pharmacological Basis of Therapeutics, Tenth Edition, Hardman, J. G.; Limbird, L. E., Eds., McGraw Hill, Columbus, Ohio, 2001, Chapter 1.) The following method was used to investigate the pharmacokinetic parameters (elimination half-life, total plasma clearance, etc.) for intravenous, subcutaneous and oral administration of compounds of the present invention. See also U.S. patent application Ser. No. 11/149,512 and Ser. No. 11/149,731 and Intl. Pat. Appl. No. PCT/US2007/017905.
The table below presents oral bioavailability and elimination half-life data in the rat for representative compounds of the present invention. The parameters were determined by HPLC-MS after oral administration of an 8 mg/kg dose of the compound, except for compound 822 where a 2 mg/kg dose was used.

The subject of data set [4] is fasted rats. Put plainly: Gastric emptying in fasted rat model, standard method E. It is filed as in vivo. The conditions noted are these: average where repeated. The protocol:
E. Gastric Emptying in Fasted Rat Model
To examine the effects of compounds of the invention in a model for gastroparesis, compounds were evaluated for possible effects on gastric emptying in fasted rats. This model is used to determine the potential of compounds of the invention to promote motility in fasted rats.
• 1. Overnight-fasted rats (male, Wistar, 200 g, n=5/group) were given a meal (2 mL) of methylcellulose (2%) by intragastric gavage. The meal was labeled with phenol red (0.05%). • 2. Test articles (dosed at various concentrations, typically 1, 3, 10, 30 mg/kg), vehicle and positive control (metoclopramide, a 5-HT ligand and prokinetic agent currently prescribed for the treatment of GI disorders, including gastroparesis) were administered by oral gavage immediately after the meal (time=0). • 3. […] Total phenol red remaining in the stomach was quantified by a colorimetric method at 560 nm. • 5. A 30% or more increase in gastric emptying (as compared to the vehicle control) was considered significant. • 6. One-way ANOVA, Dunnet's post-hoc statistical test was applied Results
The effects of representative compounds of the invention in the rat gastric emptying model described in standard method E are provided in the following table. In cases where an experiment was conducted multiple times, the average of the individual results is presented.

Data set [5] is described as follows: Plasma protein binding, human plasma (equilibrium dialysis). In kind it is in vitro ADME. The conditions noted are these: test concentration 3 μg/mL. An excerpt:
J. Plasma Protein Binding
The pharmacokinetic and pharmacodynamic properties of drugs are largely a function of the reversible binding of drugs to plasma or serum proteins such as albumin and α1-acid glycoprotein. In general, only unbound drug is available for diffusion or transport across cell membranes, and for interaction at the pharmacological target. On the other hand, drugs with low plasma protein binding generally have large volumes of distribution and rapid clearance since only unbound drug is available for glomerular filtration and, in some cases, hepatic clearance. Thus, the extent of plasma protein binding can influence efficacy, distribution and elimination. The ideal range for plasma protein binding is in the range of 87-98% for most drug products.
Protein binding studies were performed using human plasma. Briefly, 96-well microplates were used to incubate various concentrations of the test article for 60 min at 37° C. Bound and unbound fractions are separated by equilibrium dialysis, where the concentration remaining in the unbound fraction is quantified by LC-MS or LC-MS-MS analysis. […].
The table below presents protein binding data for representative compounds of the present invention in both human and rat plasma.

Data set [6] deals with T1, hGHS-R1a (Homo sapiens, UniProt Q92847).
T1 construct: expressed in transfected cells
Put plainly: Activation-desensitization profile, Ca2+ flux in HEK293 cells stably expressing hGHS-R1a. It is filed as cell-based. The conditions noted are these: higher positive = less desensitization potential. The method, then: M. Activation-Desensitization Profile
It is well-known that agonists of G-protein coupled receptors can induce desensitization or tachyphylaxis, thereby limiting the potential of agents acting at the receptor as therapeutics for chronic use.
• 1. […] Agonist-induced Ca^+2 fluxes were measured after loading with Ca^+2 indicator Fluo-4-AM. • 3. […] Results
For orientation: Calcium flux is commonly read through the fluorescence of an indicator in the cells.

A short description of data set [7]: in vitro. The conditions noted are these: human, Caco-2.
Description: L. Determination of Caco-2 Permeability
Fully differentiated cell monolayers can be used to assess the membrane transport properties of novel compounds.
Permeability across the Caco-2 cell layer was determined by growing the cells on a membrane placed between two (donor and acceptor) chambers. […] Permeability in this direction represents intestinal absorption. Permeability may also be determined from the basolateral to the apical side of the Caco-2 cell. A higher apical to basolateral Papp, compared to the basolateral to apical Papp, is indicative of carrier-mediated transport.
Permeability (10 μM) for compounds of the invention in the apical to basolateral and basolateral to apical direction were tested in duplicate. Samples will be collected from the donor and acceptor chambers at the beginning (0 min) and following 60 min of incubation at 37° C. and stored frozen at −70° C. until bioanalysis. Samples for each test compound generated from the Caco-2 permeability assay were further analyzed by LC-MS-MS. The permeability of [^3H]-mannitol and [^3H]-propranolol were determined in parallel as controls.
The permeability coefficient (Papp) of each compound and radiolabeled standard was determined using the following equation:
where dQ/dT represents the permeability rate, Ci denotes the initial concentration in the donor compartment, and A represents the surface area of the filter. Ci is determined from the mean concentration of duplicate samples taken prior to addition to the donor compartment. Permeability rates were calculated by plotting the cumulative amount of compound measured in the acceptor compartment over time and determining the slope of the line by linear regression analysis. The duplicate and mean apical to basolateral and basolateral to apical Papp's were reported for each compound and standard.
For data set [8], the system named is rat stomach fundus strips. The data set can be described thus: tissue or blood. As to conditions: read-out: EC50 values for contractility.
Description: as §1, §2

Where two headings read alike, the source gives them in different places.

Chain of human growth hormone secretagogue receptor (hGHS-R1a) (Q92847 whole entry): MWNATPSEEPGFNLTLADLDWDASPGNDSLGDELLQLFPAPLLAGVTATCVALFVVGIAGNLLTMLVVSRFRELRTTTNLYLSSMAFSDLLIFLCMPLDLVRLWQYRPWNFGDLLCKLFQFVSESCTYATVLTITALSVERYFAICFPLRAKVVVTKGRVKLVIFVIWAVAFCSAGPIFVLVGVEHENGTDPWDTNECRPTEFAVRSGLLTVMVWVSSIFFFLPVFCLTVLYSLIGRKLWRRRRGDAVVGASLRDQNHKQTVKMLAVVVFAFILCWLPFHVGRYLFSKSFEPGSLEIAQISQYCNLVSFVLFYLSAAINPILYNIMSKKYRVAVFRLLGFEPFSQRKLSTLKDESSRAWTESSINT
T1 sequence (Q92847 whole entry): as above

The compound `CCCCCCCC(=O)OC[C@H](NC(=O)[C@H](CO)NC(=O)CN)C(=O)N[C@@H](Cc1ccccc1)C(=O)N[C@@H](CC(C)C)C(=O)N[C@@H](CO)C(=O)N1CCC[C@H]1C(=O)N[C@@H](CCC(=O)O)C(=O)N[C@@H](Cc1c[nH]cn1)C(=O)N[C@@H](CCC(N)=O)C(=O)N[C@@H](CCCNC(=N)N)C(=O)N[C@H](C(=O)N[C@@H](CCC(N)=O)C(=O)N[C@@H](CCC(N)=O)C(=O)N[C@@H](CCCNC(=N)N)C(=O)N[C@@H](CCCCN)C(=O)N[C@@H](CCC(=O)O)C(=O)N[C@@H](CO)C(=O)N[C@@H](CCCCN)C(=O)N[C@@H](CCCCN)C(=O)N1CCC[C@H]1C(=O)N1CCC[C@H]1C(=O)N[C@@H](C)C(=O)N[C@@H](CCCCN)C(=O)N[C@@H](CC(C)C)C(=O)N[C@@H](CCC(N)=O)C(=O)N1CCC[C@H]1C(=O)N[C@@H](CCCNC(=N)N)C(=O)O)C(C)C` [Ghrelin] registered an EC50 in data set [1] of 5 nM.

`CC(C)C[C@H]1NC(=O)[C@@H](C)N(C)C(=O)[C@H](C2CCCCC2)NC[C@H]2CCc3cccc(c3O2)CCCNC1=O` [Compound 801]: the Ki in data set [2] is at most 1 nM. Further, the “Oral Bioavailability (rat, % F)” value in data set [3] (oral administration, 8 mg/kg dose, HPLC-MS) is listed as 4 % F. For the same compound, the bioavailability in data set [3] (plasma, 8 mg/kg, oral administration (Example 3)) is 4%. In addition, the half-life in data set [3] (plasma, oral administration, 8 mg/kg dose, HPLC-MS, read-out: Elimination Half-life (t1/2, rat, min)) was 42 min. For the same compound, the “Percent Increase in Gastric Emptying After Oral Administration” value (from here on “Percent Increase”) in data set [4] (dose 3 mg/kg) came out at 27%. For the same compound, the “Percent Increase” value in data set [4] (dose 10 mg/kg) came out at 31%. Further, the “Percent Increase” value in data set [4] (dose 30 mg/kg) was found to be 40%. The fraction unbound at 60 min, 3 μg/mL in data set [5] is 0.116. The “Δ(activity-desensitization) (pEC50 − pDC50)” value in data set [6] was 3.30. For the same compound, in data set [7], the Papp A→B at 60 min, 10 μM was found to be 163 ×10⁻⁶ cm/s; the Papp B→A at 60 min, 10 μM came out at 110 ×10⁻⁶ cm/s; the efflux ratio at 60 min, 10 μM turned out to be 0.672. Besides, the EC50 in data set [8] stood at 300 nM.
